From paper PMC12056667 (Chemical Science, 2025)

What was measured:
[1] = target: T1, Tet(X4) (Escherichia coli, UniProt A0A3T0V9Y5); test: Fluorescence polarisation binding assay of probes with purified TDase
Experimental: (§1) NADPH was not included to prevent turnover of the probe to the hydroxylated product, which would likely have a lower binding affinity than the initial probes. Screens were conducted in pH 7.0 buffer with addition of 0.01% Triton-X100 detergent in non-binding plates to minimise adsorption to the plate wells.[45]
Aliquots of TDases were thawed and serially diluted with the assay buffer (100 mM Tris, pH 7.0 with 0.01% Triton X-100) in a V-bottom 96-well plate (Greiner Bio-One). 12.5 μL of each concentration of enzyme was transferred in quadruplicate to a 384-well black, non-binding microtiter plate (Greiner Bio-One). […] 12.5 μL of this solution was added to wells containing enzyme. A negative control of 12.5 μL of the probe solution with 12.5 μL of the assay buffer was included on each plate. The plate was briefly centrifuged (1000 rpm), then incubated at ambient temperature for 30 min before measuring the FP response using a PHERAstar FS microplate reader (BMG Labtech) equipped with an FP optic module (excitation = 540 ± 20 nm, Emission = 590 ± 20 nm, 200 flashes per well). ΔmP values were calculated by subtracting the average mP of the negative controls from the mP measured for each well. To calculate Kd values, the derived ΔmP values were plotted as a function of enzyme concentration and a one-site specific binding model was applied (GraphPad Prism 9.4.1).

[2] = target: Tet(X7); test: as above; conditions: 25 nM probe, 5 mM MgCl2, 1 μM FAD, 100 mM Tris pH 7.0, 0.01% Triton X-100
Experimental: as §1
(§2) Aliquots of TDases were thawed and serially diluted with the assay buffer (100 mM Tris, pH 7.0 with 0.01% Triton X-100) in a V-bottom 96-well plate (Greiner Bio-One). 12.5 μL of each concentration of enzyme was transferred in quadruplicate to a 384-well black, non-binding microtiter plate (Greiner Bio-One). Aliquots of 2 mM stock of fluorescent probes 5 and 6 in DMSO were thawed and diluted to 50 nM in the assay buffer with 2 μM FAD and 10 mM MgCl2. 12.5 μL of this solution was added to wells containing enzyme. A negative control of 12.5 μL of the probe solution with 12.5 μL of the assay buffer was included on each plate. The plate was briefly centrifuged (1000 rpm), then incubated at ambient temperature for 30 min before measuring the FP response using a PHERAstar FS microplate reader (BMG Labtech) equipped with an FP optic module (excitation = 540 ± 20 nm, Emission = 590 ± 20 nm, 200 flashes per well). ΔmP values were calculated by subtracting the average mP of the negative controls from the mP measured for each well. To calculate Kd values, the derived ΔmP values were plotted as a function of enzyme concentration and a one-site specific binding model was applied (GraphPad Prism 9.4.1).

[3] = target: T2, Tet(50) (Unknown prokaryotic organism, UniProt A0A059WYP6); test: as above
T2 construct: made in house; host or cells: E. coli BL21(DE3)
Experimental: as §1, §2

[4] = target: T3, Tet(X2) (Bacteroides thetaiotaomicron, UniProt Q93L51); test: as above
T3 construct: For Tet(X2), the full-length protein was prepared rather that the Δ1–10 mutant used previously for crystallographic studies; made in house; host or cells: E. coli BL21(DE3)
Experimental: as §1, §2

[5] = target: Tet(X5); test: as above; conditions: 25 nM probe, 5 mM MgCl2, 1 μM FAD, 100 mM Tris pH 7.0, 0.01% Triton X-100
Experimental: as §1, §2

[6] = target: T1, Tet(X4); test: Turnover of probe 6 (absorbance and LC-MS); type: biochemical; conditions: with NADPH; decrease of A400 and +16 Da species by LC-MS
Experimental: To investigate whether fluorescent probe 6 binds to the active site of the Tet(X) enzymes, we carried out docking of the probe with Tet(X4)[8] (ESI Fig. S10 ^†). […] We thus considered that probe 6 may be hydroxylated by Tet(X4) when NADPH was added to initiate turnover. We monitored turnover of probe 6 using an absorbance-readout assay with Tet(X4) adapted from previous studies.[33] A decrease in absorbance at 400 nm was observed, consistent with hydroxylation, but was not seen in a control reaction lacking Tet(X4) (ESI Fig. S11 ^†). This observation was corroborated by LC-MS analysis of the reaction (ESI Fig. S12 ^†). Appearance of an apparently mono-hydroxylated species with mass 989.348 Da (calculated mass: 989.3504 Da) was observed, +16 Da relative to the starting material (measured mass: 973.355 Da; calculated mass: 973.3555 Da).
233 Absorbance Activity Assays […]
243 CLARIOstar Plus Microplate reader. The absorbance was monitored at wavelength […] over the […]
245 calculated by measuring the rate of change of A400 during the initial linear regime. […]
247 function of log10([Inhibitor]) in molar units, and the IC50 was determined as above. […]
252 reaction was monitored by recording the absorbance spectra between 200-800 nm at one-minute […]
261 Quenched samples were stored at -20 °C prior to analysis. Samples were analysed using a Xevo G2-XS […]

CN(C)c1ccc2c(-c3ccc(NC(=S)NCC(=O)Nc4cc(N(C)C)c5c(c4O)C(=O)C4=C(O)[C@]6(O)C(=O)C(C(N)=O)=C(O)C(N(C)C)[C@@H]6C[C@@H]4C5)cc3C(=O)[O-])c3ccc(=[N+](C)C)cc-3oc2c1 (stereo partly drawn) [Probe 6, TRITC-glycyl-minocycline]
Kd ([1]; Kd, 25 nM probe, 5 mM MgCl2, 1 μM FAD, 100 mM Tris pH 7.0, 0.01% Triton X-100): 17.3 ± 1.9 nM
Kd ([1]; apparent Kd, with 5 mM MgCl2): 18.1 ± 2.4 nM
Kd ([1]; apparent Kd, without MgCl2): 188 ± 33 nM
Kd [2]: 40.5 ± 5.1 nM
Kd ([3]; 25 nM probe, 5 mM MgCl2, 1 μM FAD, 100 mM Tris pH 7.0, 0.01% Triton X-100): > 5 µM
binding to Tet(50) (in words) ([3]; up to a concentration of 5 μM of enzyme): no detectable binding
Kd [4]: 22.4 ± 4 nM
Kd [5]: 10.6 ± 1.3 nM
turnover by Tet(X4) (in words) [6]: can be turned over
